Publication PMC3258025 (Molecular Cancer Therapeutics, 2010)

Columns and labels:
[1] = molecular target: T1, OCT1 (Homo sapiens, UniProt O15245); conditions: 10 μmol/L, 30 minutes; picoplatin in PB-Cl, monoaqua and diaqua complexes in PB-SO4
T1 sequence (O15245 1-554): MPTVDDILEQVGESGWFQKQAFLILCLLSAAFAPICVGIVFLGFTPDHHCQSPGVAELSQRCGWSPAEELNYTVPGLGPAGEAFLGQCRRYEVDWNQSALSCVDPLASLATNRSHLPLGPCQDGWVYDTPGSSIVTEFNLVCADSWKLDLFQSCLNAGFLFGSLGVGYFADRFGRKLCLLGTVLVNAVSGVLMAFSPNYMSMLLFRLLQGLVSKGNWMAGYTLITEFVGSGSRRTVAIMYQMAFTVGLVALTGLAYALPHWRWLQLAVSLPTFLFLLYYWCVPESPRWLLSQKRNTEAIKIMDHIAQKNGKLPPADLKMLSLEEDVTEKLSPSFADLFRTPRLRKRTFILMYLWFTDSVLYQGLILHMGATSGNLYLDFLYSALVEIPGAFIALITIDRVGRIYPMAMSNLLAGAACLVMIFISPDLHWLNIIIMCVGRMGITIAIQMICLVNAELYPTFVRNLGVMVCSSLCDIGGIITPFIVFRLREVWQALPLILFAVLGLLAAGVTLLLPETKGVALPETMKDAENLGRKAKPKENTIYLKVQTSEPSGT

[2] = system: lung cancer cell lines (A549, H460, H838, and H1703); assay: MTT cytotoxicity, summary over the four lung cancer cell lines; type: cell-based, human; conditions: cimetidine 3 mmol/L, 4-hour exposure
[3] = system: HEK293 cells; assay: MTT cytotoxicity of the OCT inhibitors themselves; type: cell-based, human; conditions: same experimental conditions as picoplatin MTT assay; data not shown
[4] = molecular target: T2, OCT3 (Homo sapiens, UniProt O75751); conditions: corticosterone 10 μmol/L, P < 0.001
T2 sequence (O75751 1-556): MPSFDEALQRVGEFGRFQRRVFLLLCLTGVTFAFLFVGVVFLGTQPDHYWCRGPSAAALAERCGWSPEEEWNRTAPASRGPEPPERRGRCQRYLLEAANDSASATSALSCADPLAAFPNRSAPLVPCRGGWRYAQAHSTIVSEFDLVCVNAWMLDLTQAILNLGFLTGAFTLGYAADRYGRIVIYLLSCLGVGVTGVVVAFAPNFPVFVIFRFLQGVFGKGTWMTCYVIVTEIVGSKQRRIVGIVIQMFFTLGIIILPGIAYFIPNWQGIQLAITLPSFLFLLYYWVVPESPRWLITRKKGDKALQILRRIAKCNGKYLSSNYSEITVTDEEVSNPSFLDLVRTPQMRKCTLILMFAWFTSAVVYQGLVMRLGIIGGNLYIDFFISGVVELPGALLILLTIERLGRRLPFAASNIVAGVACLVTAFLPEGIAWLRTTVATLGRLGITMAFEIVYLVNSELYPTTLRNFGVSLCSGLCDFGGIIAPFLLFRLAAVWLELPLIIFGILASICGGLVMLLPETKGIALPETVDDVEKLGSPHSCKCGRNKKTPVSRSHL

[5] = system: HEK-hOCT1 cells; assay: MTT cytotoxicity assay in OCT1-transfected HEK293 cells; type: cell-based, human; conditions: disopyramide 150 μmol/L
[6] = molecular target: T1, OCT1; assay: Platinum-DNA adduct formation in HEK-hOCT1 cells; type: cell-based; conditions: disopyramide 150 μmol/L, P < 0.001

| Compound | Change in IC50 values in the presence of cimetidine [2] | Concentration up to which the inhibitor itself did not exhibit any cytotoxicity [3] [µM] | other results |
| --- | --- | --- | --- |
| Cc1cccc[n+]1[Pt-2]([NH3+])([OH2+])[Cl] (centres unmarked) [monoaqua complex of picoplatin, [Pt(NH3)(2-Pic)(H2O)(Cl)]+] | – | – | Preference of platinum uptake in OCT1-expressing cells over the corresponding EV cells [1]: equal additional preference in OCT1-expressing cells |
| N.N.O=C([O-])C1(C(=O)[O-])CCC1.[Pt+2] [Carboplatin] | no significant change in the IC50 values | – | – |
| CN/C(=N/CCSCc1nc[nH]c1C)NC#N [cimetidine] | – | > 5000 | – |
| N.N.[Cl][Pt][Cl] [Cisplatin] | no significant change in the IC50 values | – | – |
| C[C@]12C[C@H](O)[C@H]3[C@@H](CCC4=CC(=O)CC[C@@]43C)[C@@H]1CC[C@@H]2C(=O)CO [corticosterone] | – | – | Effect of OCT3 inhibitor on picoplatin-DNA adduct level in HEK-hOCT3 cells [4]: completely inhibited |
| CC(C)N(CCC(C(N)=O)(c1ccccc1)c1ccccn1)C(C)C (centres unmarked) [disopyramide] | – | > 400 | Increase of picoplatin IC50 by coincubation of OCT1 inhibitor [5]: 5.9 fold; Effect of OCT1 inhibitor on platinum-DNA adduct formation in HEK-hOCT1 cells [6]: inhibitable |
